The record followed here is ChEMBL document CHEMBL1949520, “Synthesis of terphenyl benzimidazoles as tubulin polymerization inhibitors” (2012).

What all share (type): functional
The nature of assay [1]: Growth inhibition of human DWD cells by SRB assay. A general note: In SRB staining, fixed cells bind dye roughly in proportion to their protein.
The subject of assay [2] is COLO 205. In words: Growth inhibition of human COLO205 cells by SRB assay.
The test system of assay [3] is ZR-75-1. In words: Growth inhibition of human ZR-75-1 cells by SRB assay.
Assay [4] has as its system PC-3. In words: Growth inhibition of human PC3 cells by SRB assay.
Assay [5] has as its system KB. In words: Growth inhibition of human KB cells by SRB assay.
Assay [6] deals with SiHa. In words: Growth inhibition of human SiHa cells by SRB assay.
The subject of assay [7] is HOP-62. Briefly: Growth inhibition of human HOP62 cells by SRB assay.
The nature of assay [8]: Growth inhibition of human Gurav cells by SRB assay.
The test system of assay [9] is MCF7. In words: Growth inhibition of human MCF7 cells by SRB assay.
In assay [10] the test system is A2780. Briefly: Growth inhibition of human A2780 cells by SRB assay.
The subject of assay [11] is A549. Briefly: Growth inhibition of human A549 cells by SRB assay.

As to `Clc1cccc(-c2ccc(-c3ccc(-c4nc5ccccc5[nH]4)cc3)cc2)c1`, the 50% growth inhibitory concentration (GI50) was found to be 100 µM in assay [1]; 100 µM in [2]; 41.2 µM in assay [3]; 33.7 µM in assay [4]; 32.3 µM in [5]; 100 µM in assay [6]. Further, the GI50 came out at 100 µM in assay [7]; 2.19 µM in assay [8]; 36.3 µM in [9]; 31.1 µM in assay [10]; 31.1 µM in assay [11].
On to `Cc1ccc2[nH]c(-c3ccc(-c4ccc(-c5ccccc5)cc4)cc3)nc2c1`, for which the GI50 came out at 28.3 µM in assay [1]; 2.56 µM in assay [2]; 27.4 µM in assay [3]; 100 µM in assay [4]; 32.1 µM in assay [5]; 35.2 µM in assay [6]. In addition, the GI50 was 39.3 µM in assay [7]; 3.31 µM in assay [8]; 31.6 µM in [9]; 41.2 µM in assay [10]; 3.63 µM in assay [11].
In the case of `COc1ccc(-c2ccc(-c3ccc(-c4nc5ccccc5[nH]4)cc3)cc2)cc1`, the GI50 in assay [1] turned out to be 100 µM; in assay [2], 45.2 µM; in assay [3] it was 35.1 µM; in [4], 100 µM; in assay [5], 47.2 µM; in assay [6] it was 2.76 µM. Further, the GI50 came to 100 µM in assay [7]; 38.1 µM in assay [8]; 33.3 µM in assay [9]; 100 µM in assay [10]; 38.1 µM in assay [11].
In the case of `COc1cccc2c1C(=O)c1c(O)c3c(c(O)c1C2=O)C[C@@](O)(C(=O)CO)C[C@@H]3O[C@H]1C[C@H](N)[C@H](O)[C@H](C)O1` [DOXORUBICIN], the GI50 amounted to 0.1 µM in assay [1]; 0.14 µM in assay [2]; 0.17 µM in assay [5]; 0.14 µM in assay [6]; 0.14 µM in assay [7]; 0.17 µM in [8]. In addition, the GI50 worked out at 0.17 µM in assay [9] and 0.16 µM in assay [10].
Regarding `Cc1ccc2[nH]c(-c3ccc(-c4ccc(-c5ccc(O)cc5)cc4)cc3)nc2c1`, the concentration for 50% growth inhibition (GI50) in assay [1] was determined as 21.2 µM; in assay [2] it was 100 µM; in assay [3] it was 18.2 µM; in assay [4], 30 µM; in [5], 21.2 µM; in [6], 33.5 µM. In addition, the GI50 in assay [7] was 41.2 µM; in assay [8] it was 11.3 µM; in assay [9] it was 12.1 µM; in assay [10], 31.2 µM; in assay [11], 3.52 µM.
As to `Oc1cccc2[nH]c(-c3ccc(-c4ccc(-c5ccc(F)cc5)cc4)cc3)nc12`, the GI50 in assay [1] worked out at 22.2 µM; in assay [2], 1.22 µM; in assay [3] it was 6.32 µM; in assay [4], 15.3 µM; in [5], 6.92 µM; in [6], 9.1 µM. Also, the GI50 in assay [7] was 8.31 µM; in assay [8], 2.86 µM; in assay [9], 3.01 µM; in assay [10], 41.2 µM; in assay [11], 0.17 µM.
With `Cc1ccc2[nH]c(-c3ccc(-c4ccc(-c5ccc(F)cc5)cc4)cc3)nc2c1`, the GI50 amounted to 33.1 µM in assay [1]; 100 µM in [2]; 35 µM in [3]; 100 µM in assay [4]; 24.9 µM in assay [5]; 41 µM in [6]. Moreover, the GI50 in assay [7] amounted to 33.5 µM; in assay [8], 16.5 µM; in assay [9], 30.2 µM; in assay [10] it was 24.6 µM; in assay [11] it was 6.03 µM.
For `COc1ccc(-c2ccc(-c3ccc(-c4nc5cc(C)ccc5[nH]4)cc3)cc2)cc1OC`, the GI50 in assay [1] was found to be 1.72 µM; in [2] it was 2.32 µM; in assay [3], 3.1 µM; in assay [4], 2.56 µM; in assay [5], 2.19 µM; in assay [6], 3.51 µM. Besides, the GI50 in assay [7] came to 2.12 µM; in assay [8], 1.31 µM; in [9], 0.19 µM; in [10] it was 2.13 µM; in assay [11], 2.1 µM.
Take `CN(C)c1ccc(-c2ccc(-c3ccc(-c4nc5ccccc5[nH]4)cc3)cc2)cc1`: the GI50 in [1] is 100 µM; in [2], 100 µM; in assay [3] it was 100 µM; in assay [4], 100 µM; in [5] it was 39.3 µM; in assay [6], 100 µM. Further, the GI50 in [7] came out at 100 µM; in [8], 100 µM; in assay [9], 41.2 µM; in assay [10], 100 µM; in [11] it was 30.1 µM.
Regarding `c1ccc(-c2ccc(-c3ccc(-c4nc5ccccc5[nH]4)cc3)cc2)cc1`, the GI50 in [1] amounted to 100 µM; in assay [2] it was 100 µM; in assay [3], 100 µM; in [4] it was 41.2 µM; in assay [5], 39.7 µM; in assay [6], 100 µM. The 50% growth inhibitory concentration (GI50) was 100 µM in assay [7]; 100 µM in [8]; 39.2 µM in assay [9]; 32.1 µM in assay [10]; 41.2 µM in assay [11].
Take `Oc1cccc2[nH]c(-c3ccc(-c4ccc(-c5cccc(Cl)c5)cc4)cc3)nc12`: the GI50 in [1] is 2.1 µM; in assay [2], 8.6 µM; in assay [3] it was 2.41 µM; in [4], 2.56 µM; in assay [5], 2.28 µM; in [6] it was 8.4 µM. In addition, the GI50 worked out at 2.26 µM in assay [7]; 2.31 µM in assay [8]; 3.42 µM in [9]; 2.8 µM in assay [10]; 2.4 µM in [11].
On to `FC(F)(F)c1ccc(-c2ccc(-c3ccc(-c4nc5ccccc5[nH]4)cc3)cc2)cc1`, for which the GI50 in assay [1] came to 100 µM; in [2], 33.9 µM; in assay [3], 48.3 µM; in assay [4] it was 45.2 µM; in [5], 47.2 µM; in assay [6] it was 100 µM. Further, the GI50 is 100 µM in assay [7]; 39.1 µM in [8]; 41.4 µM in assay [9]; 100 µM in assay [10]; 36.6 µM in [11].
Take `COc1cc(-c2ccc(-c3ccc(-c4nc5ccccc5[nH]4)cc3)cc2)cc(OC)c1OC`: the GI50 in [1] amounted to 8.01 µM; in [2] it was 8.32 µM; in assay [3] it was 9.71 µM; in assay [4] it was 9.72 µM; in assay [5] it was 2.98 µM; in [6], 4.98 µM. The GI50 was 9.43 µM in [7]; 7.1 µM in assay [8]; 6.38 µM in [9]; 9.21 µM in [10]; 2.11 µM in assay [11].
`CN(C)c1ccc(-c2ccc(-c3ccc(-c4nc5c(O)cccc5[nH]4)cc3)cc2)cc1`: the GI50 in [1] was found to be 9.21 µM; in assay [2], 6.32 µM; in [3], 4.1 µM; in assay [4], 8.42 µM; in [5], 4.2 µM; in assay [6], 6.24 µM. For the same molecule, the GI50 in assay [7] came to 8.25 µM; in assay [8], 8.21 µM; in [9], 2.31 µM; in assay [10], 3.01 µM; in [11] it was 7.1 µM.
For the molecule `COc1ccc(-c2ccc(-c3ccc(-c4nc5c(O)cccc5[nH]4)cc3)cc2)cc1`, the GI50 in assay [1] worked out at 6.4 µM; in [2], 1.63 µM; in [3] it was 8.2 µM; in assay [4], 6.61 µM; in [5], 4.9 µM; in assay [6], 4.8 µM. For the same molecule, the GI50 turned out to be 3.21 µM in assay [7]; 6.63 µM in assay [8]; 3.11 µM in assay [9]; 8.64 µM in [10]; 7.69 µM in assay [11].
Consider `Oc1cccc2[nH]c(-c3ccc(-c4ccc(-c5ccccc5)cc4)cc3)nc12`, for which the GI50 was 9.68 µM in [1]; 1.21 µM in assay [2]; 35.6 µM in assay [3]; 1.24 µM in [4]; 4.01 µM in assay [5]; 9.71 µM in assay [6]. Moreover, the GI50 in [7] is 9.04 µM; in assay [8] it was 1.11 µM; in assay [9] it was 2.2 µM; in assay [10], 41 µM; in assay [11] it was 8.32 µM.
Take `Cc1ccc2[nH]c(-c3ccc(-c4ccc(-c5ccc(C(F)(F)F)cc5)cc4)cc3)nc2c1`: the GI50 in [1] turned out to be 38.2 µM; in assay [2] it was 30.6 µM; in [3], 2.41 µM; in assay [4] it was 2.01 µM; in [5] it was 41.2 µM; in [6], 33.2 µM. Further, the GI50 came to 24.2 µM in assay [7]; 12 µM in [8]; 31 µM in [9]; 12.3 µM in assay [10]; 3.52 µM in assay [11].
For the molecule `COc1ccc(-c2ccc(-c3ccc(-c4nc5ccccc5[nH]4)cc3)cc2)cc1OC`, the GI50 in [1] stood at 42.1 µM; in assay [2], 41.2 µM; in assay [3] it was 39.7 µM; in assay [4] it was 47.1 µM; in assay [5], 9.25 µM; in assay [6], 6.2 µM. Further, the GI50 in [7] turned out to be 4.2 µM; in assay [8], 9.23 µM; in assay [9] it was 7.6 µM; in assay [10], 21.6 µM; in [11], 7.6 µM.
As for `COc1ccc(-c2ccc(-c3ccc(-c4nc5c(O)cccc5[nH]4)cc3)cc2)cc1OC`, the GI50 in [1] worked out at 1.4 µM; in assay [2], 1.32 µM; in [3], 2.11 µM; in assay [4], 1.24 µM; in assay [5] it was 2.71 µM; in [6], 1.11 µM. The GI50 in assay [7] was 2.21 µM; in assay [8] it was 1.11 µM; in assay [9] it was 0.19 µM; in assay [10], 2.71 µM; in assay [11], 1.31 µM.

The term GI50 denotes the concentration giving 50% growth inhibition. Low values mean more potent growth inhibition, high ones less potent growth inhibition.
